Earlier results, collected in US20070184105A1, “COMSPOSITION FOR STABLIZING EPIGALLOCATECHIN GALLATE (EGCG) IN WATER PHASE AND PREPARATION METHOD THEREOF” (DPI SOLUTIONS, INC., priority 2004, published 2007).

O=C(O[C@@H]1Cc2c(O)cc(O)cc2O[C@@H]1c1cc(O)c(O)c(O)c1)c1cc(O)c(O)c(O)c1 [EGCG, epigallocatechin gallate]
amount of EGCG that can be dissolved in water phase: about 4%
